For data set [1], the system named is dextran sulfate sodium (DSS)-induced colitis in mice. Put plainly: mouse dextran sulfate sodium (DSS) model of acute ulcerative colitis. On Colon Content Score (0-3): key: 0=normal, no blood observed; 1=semi-solid stool, may be slightly blood tinged; 2=semi-solid to fluid stool with definite evidence of blood; 3=bloody fluid or no content, (include animals with no observable distal content in this category). The class given is in vivo, mice (Swiss Webster). The settings on record: for restoration of colon length (in words): DSS-induced colitis in mice, oral administration.
Data set [2] can be described thus: viscosity (flow property) and taste assessment. It is filed as physicochemical. The method, then:
Properties of provided compounds and compositions can be readily tested, including using a number of methods widely known and practiced in the art, in accordance with the present disclosure. For example, viscosity and/or taste of provided compounds can be readily tested. In some embodiments, viscosity was assessed by testing whether a provided compound could readily flow out of a vial or be swirled. In some embodiments, viscosity was assessed by testing whether a provided compound could be administered by direct drinking by a subject. In some embodiments, viscosity can be measured quantitatively or qualitatively by methods and instruments as known and practiced in the art. In some embodiments, taste was assessed by testing whether a provided compound could be administered by direct drinking by a subject.

The mark [3] stands for this setting: CsA (75 mg/kg PO QD) vs. Compound I-1 (2 g/kg PO BID).
[4] abbreviates: Naïve vs. Compound I-1 (2 g/kg PO BID).
The mark [5] stands for this setting: Vehicle vs. Compound I-1 (2 g/kg PO BID).
The mark [6] stands for this setting: individual animals, necropsy day 7, 3% DSS, Compound I-1 2 g/kg PO, BID (d0-6).

Structures are written as SMILES. “And” between values parts separate entries of the source, which are not always exact repeats. Equal values may be shown once.

On to `CCCC(=O)OCC(COC(=O)CCC(=O)OCC(COC(=O)CCC)OC(=O)CCC)OC(=O)CCC` (stereo not drawn) [Compound I-1], for which, in data set [1] (setting [3]), the “Mean Diff., Tukey's multiple comparisons test (colon length, FIG. 2)” value amounted to 0.65 and the “Significant? Tukey's multiple comparisons test (colon length, FIG. 2)” value was “No”. In data set [1], the “restoration of colon length (in words)” value was “significantly restore colon length”. The “restoration of colon length (in words)” value in data set [1] (listed as compound I-1) was “effectively restored colon length”. Further, in data set [1] (setting [4]), the “Mean Diff., Tukey's multiple comparisons test (colon length, FIG. 2)” value is given as 1.85 and the “Significant? Tukey's multiple comparisons test (colon length, FIG. 2)” value is listed as “Yes”. In data set [1] (setting [5]), the “Mean Diff., Tukey's multiple comparisons test (colon length, FIG. 2)” value is on record as −1.05 and the “Significant? Tukey's multiple comparisons test (colon length, FIG. 2)” value is “Yes”. Also, in data set [1] (setting [6]), the “Colon Content Score (0-3)” value was 1 (8×) and 2 (2×); the “Colon Length” value is 8.00 cm (3×) and 8.25 cm and 6.25 cm (2×) and 8.50 cm and 7.00 cm (2×) and 6.75 cm; the “Colon Weight:Length” value was 0.046 g/cm and 0.039 g/cm and 0.043 g/cm and 0.063 g/cm and 0.042 g/cm and 0.054 g/cm and 0.034 g/cm and 0.047 g/cm and 0.056 g/cm and 0.048 g/cm; the “Colon Wet Wt” value is 0.369 g and 0.320 g and 0.343 g and 0.391 g and 0.332 g (2×) and 0.339 g and 0.291 g and 0.390 g and 0.324 g. In data set [2], the “flow properties and taste for formulation” value was “surprisingly good flow properties and taste”; the “viscosity compared with glycerol” value is recorded as “lower viscosity than glycerol”.
For `CCCC(=O)OCC(COC(=O)CCC)OC(=O)CCC(=O)OC(COC(=O)CCC)COC(=O)CCC` [Compound I-2], the “flow properties and taste for formulation” value in data set [2] is “surprisingly good flow properties and taste”.

The values above are taken from patent US20200369594A1, “COMPOUNDS COMPRISING SHORT-CHAIN FATTY ACID MOIETIES AND COMPOSITIONS AND METHODS THEREOF” (priority 2018, published 2020).
